{
  "source": "patent US11883400B2",
  "about": "“Treatment of portal hypertension and cirrhosis” (Noorik Biopharmaceuticals AG, priority 2018, dated 2024)",
  "key": {"patients with cirrhosis": {"test_system": "patients with cirrhosis", "conditions": "administered through the hepatic artery, cited from earlier work"}, "[1]": {"test_system": "patients with early cirrhosis", "conditions": "cited from earlier work"}, "[2]": {"test_system": "adult subjects with a history of cirrhosis and portal hypertension", "assay": "Clinical study NCT03827200: portal pressure estimated by Hepatic Venous Pressure Gradient (HVPG)", "assay_type": "in vivo, human", "method": "(§1) In the context of a clinical study (ClinicalTrials.gov Identifier: NCT03827200), ambrisentan was administered to 8 adult subjects with a history of cirrhosis and portal hypertension. […] A liquid formulation of ambrisentan was used, consisting of a solution of propylene glycol:ethanol (50:50 w/w) and ambrisentan at a concentration of 5 mg/mL. The solution was reconstituted prior to administration in water or propylene glycol. All subjects were treated for 14 days. Portal pressure was estimated in this study by means of the Hepatic Vein Pressure Gradient (HVPG), the current gold standard to evaluate the degree of portal hypertension in adults with cirrhosis (as described in Bosch, J., Abraldes, J. G., Berzigotti, A., & Garcia-Pagan, J. C. (2009). The clinical use of HVPG measurements in chronic liver disease. Nature Reviews Gastroenterology & Hepatology, 6(10), 573-582). HVPG was measured at baseline and prior to the first administration of ambrisentan. Post-baseline values for HVPG were obtained at 90 minutes following the administration of the first dose of ambrisentan. After 14 days of treatment, HVPG was determined at trough (prior to the last dose) and 90 minutes following the last dose of ambrisentan. Two dose groups were evaluated in this study. In the high dose group, 4 subjects were administered 50 μg ambrisentan on day 1 subcutaneously, followed by 100 μg of ambrisentan twice a day orally for 13 days, for a total daily dose of 200 μg. On day 14, subjects in the high dose group received a final dose of 50 μg ambrisentan subcutaneously. In the low dose group, 4 subjects were administered 10 μg ambrisentan on day 1 subcutaneously, followed by 14 μg of ambrisentan once a day orally for 13 days. On day 14, subjects in the low dose group received a final dose of 10 μg ambrisentan subcutaneously.\nAll subjects had portal hypertension as determined by HVPG at baseline (mean 19.7 mmHg, range 9-29 mmHg). […] An initial decrease in HVPG was apparent at 90 minutes post-administration in the low-dose group, and the reduction in HVPG was even larger at day 14 when compared to day 1 (Table 2)."}, "[3]": {"assay": "Pharmacokinetic analysis of ambrisentan plasma concentrations in the clinical study", "assay_type": "in vivo, human", "conditions": "high dose group", "method": "as §1, with “In the high dose group, 4 subjects were administered 50 μg ambrisentan on day 1 subcutaneously, followed by 100 μg of ambrisentan twice a day orally for 13 days, for a total daily dose of 200 μg. On day 14, subjects in the high dose group received a final dose of 50 μg ambrisentan subcutaneously. In the low dose group, 4 subjects were administered 10 μg ambrisentan on day 1 subcutaneously, followed by 14 μg of ambrisentan once a day orally for 13 days. On day 14, subjects in the low dose group received a final dose of 10 μg ambrisentan subcutaneously.” left out"}, "[4]": {"test_system": "patient with portopulmonary hypertension", "conditions": "one case of portopulmonary hypertension; cited from earlier work"}, "[5]": {"test_system": "patients with portopulmonary hypertension", "conditions": "cited from earlier work"}},
  "note": "Non-standard residues stand in square brackets, D forms with d. Residues, ends and D or L forms follow the SMILES beside them.",
  "data": [
    {"compound": "CC(C)C[C@@H]1NC(=O)[C@@H](C(C)C)NC(=O)[C@@H]2CCCN2C(=O)[C@@H](CC(=O)O)NC(=O)[C@@H](Cc2c[nH]c3ccccc23)NC1=O", "note": "[BQ-123] (cyclo(L[dW][dD]P[dV]))", "values": [
      {"measurement": "Reduction of portal pressure as determined by HVPG", "setting": "patients with cirrhosis; acute", "result": 18, "unit": "%"},
      {"measurement": "Hepatic artery blood flow", "setting": "patients with cirrhosis", "result": "significant increase"},
      {"measurement": "Acute reduction of portal pressure as assessed by HVPG", "setting": "[1]", "result": "did not show any acute reduction on portal pressure"}
    ]},
    {"compound": "CCCC[C@@H](NC(=O)[C@@H](Cc1cn(C(=O)OC)c2ccccc12)NC(=O)[C@H](CC(C)(C)C)NC(=O)N1[C@H](C)CCC[C@@H]1C)C(=O)O", "note": "[BQ-788]", "values": [
      {"measurement": "Acute reduction of portal pressure as assessed by HVPG", "setting": "[1]", "result": "did not show any acute reduction on portal pressure"}
    ]},
    {"compound": "COC(c1ccccc1)(c1ccccc1)[C@H](Oc1nc(C)cc(C)n1)C(=O)O", "note": "[ambrisentan]", "values": [
      {"measurement": "Change in HVPG from baseline, percent change, mean", "setting": "[2]; dose group 10/14 μg, N=4, Day 1, 90 m after first dose", "result": "−6.4", "unit": "%"},
      {"measurement": "Change in HVPG from baseline, percent change, mean", "setting": "[2]; dose group 10/14 μg, N=4, Day 14, 90 m after last dose", "result": "−14.1", "unit": "%"},
      {"measurement": "Change in HVPG from baseline, percent change, mean", "setting": "[2]; dose group 10/14 μg, N=4, Day 14, trough (0 H)", "result": "−9.2", "unit": "%"},
      {"measurement": "Change in HVPG from baseline, percent change, mean", "setting": "[2]; dose group 50/200 μg, N=4, Day 1, 90 m after first dose", "result": 4.8, "unit": "%"},
      {"measurement": "Change in HVPG from baseline, percent change, mean", "setting": "[2]; dose group 50/200 μg, N=4, Day 14, 90 m after last dose", "result": 11.7, "unit": "%"},
      {"measurement": "Change in HVPG from baseline, percent change, mean", "setting": "[2]; dose group 50/200 μg, N=4, Day 14, trough (0 H)", "result": 9.2, "unit": "%"},
      {"measurement": "Steady-state trough ambrisentan plasma concentration", "setting": "[3]; 100 μg twice daily orally for 13 days", "result": "about 10 ng/mL"},
      {"measurement": "concentration at 2 h", "setting": "[3]; human, plasma, subcutaneous, 50 μg at day 14, 2 hours post-administration", "result": 18, "unit": "ng/mL"}
    ]},
    {"compound": "COc1ccccc1Oc1c(NS(=O)(=O)c2ccc(C(C)(C)C)cc2)nc(-c2ncccn2)nc1OCCO", "note": "[bosentan]", "values": [
      {"measurement": "Portal pressure as measured by HVPG", "setting": "[4]", "result": "decrease"},
      {"measurement": "Pulmonary pressure", "setting": "[4]", "result": "decrease"}
    ]},
    {"compound": "CCCNS(=O)(=O)Nc1ncnc(OCCOc2ncc(Br)cn2)c1-c1ccc(Br)cc1", "note": "[macitentan]", "values": [
      {"measurement": "6-minute walking distance", "setting": "[5]", "result": "no effect"},
      {"measurement": "Portal pressure as determined by HVPG", "setting": "[5]", "result": "not showing a significant difference"}
    ]}
  ]
}
